Experimental data from paper PMC11009625, “Antibiotic class with potent in vivo activity targeting lipopolysaccharide synthesis in Gram-negative bacteria” (Proceedings of the National Academy of Sciences of the …, 2024).
Converted amounts (≈) assume the structure as drawn. Where two headings read alike, the source gives them in different places.

What was measured:
Assay type in all cases: cell-based
[1] = tested on: E. coli ATCC 25922; experiment: MIC (CLSI broth microdilution), wild-type E. coli; settings: Escherichia coli, ATCC25922
Method: (§1) Minimum inhibitory concentration (MIC) values were determined according to the Clinical Laboratory Standards Institute guidelines. Frequency of resistance was determined by plating ~5 × 10^8 bacterial cells on agar-solidified media plates containing test compound at concentrations corresponding to four times the measured solid-media MIC of the strains. Colonies were counted after 24 h, restreaked onto media containing the same concentration of compound, and the MIC remeasured against the assayed compound. Genomic DNA from isolated clones was sequenced by paired-end sequencing on an Illumina MiSeq device. Complete experimental details available in SI Appendix. […]
(§2) Minimum inhibitory concentration (MIC) determination. Broth microdilution and agar dilution
(§3) MIC assays were conducted according to CLSI guidelines (M07-2012). Appropriate inoculation
(§4) suspension density was assessed using a Sensititre Nephelometer with a Sensititre 0.5
McFarland Standard. […]

[2] = tested on: K. pneumoniae ATCC 13883; experiment: MIC, K. pneumoniae, with and without 50% human serum
Method: as §1, §2, §3, §4
McFarland Standard. Serum MICs were conducted in 50% heat-inactivated pooled human

[3] = tested on: HepG2 cells; experiment: HepG2 cytotoxicity (72 h); settings: Homo sapiens, HepG2, 72 h
Method: Thermodynamic solubility was assessed by dissolving 2 to 3 mg of test compound to equilibrium in 100 mM KPO4-buffer, pH 7.4. The metabolic stability assay was performed in the presence of human and mouse liver microsomes by measurement of test compounds disappearance over time (60 min). The plasma protein binding assay, including stability estimation, was performed using the RED devices (Thermo Fisher Scientific) in the presence of human and mouse plasma. All samples from the in vitro ADME studies were quantified by liquid chromatography-triple quadrupole mass spectrometry (LC–MS/MS). The assays were performed as previously described ([36]) and the details are available in SI Appendix. Cytotoxicity was assessed by incubation of test compounds in the presence of HepG2 cells for 72 h as previously described ([37]).

[4] = tested on: E. coli ATCC 25922 ΔtolC efflux mutant; experiment: MIC, E. coli efflux mutant
Method: as §1, §2, §3

[5] = in vitro
Method: Minimum inhibitory concentration (MIC) determination. Broth microdilution and agar dilution MIC assays were conducted according to CLSI guidelines (M07-2012). Appropriate inoculation suspension density was assessed using a Sensititre Nephelometer with a Sensititre 0.5 McFarland Standard. Serum MICs were conducted in 50% heat-inactivated pooled human serum (Sigma-Aldrich). Serum was heated to 56 °C for one hour and then filtered using a 0.2 µm […]
Strain construction. The efflux-defective P. mirabilis strain EN1490 was constructed using EZ-Tn5 <KAN-2> Transposome mutagenesis with TypeOne Restriction Inhibitor. Approximately 3000 independent clones were screened for increased susceptibility to chloramphenicol (8 mg/L), yielding 2 independent clones with insertions in the gene tolC. […]

[6] = read-out: MIC E. coli ATCC 25922 Wild-type
[7] = Klebsiella pneumoniae, ATCC13883, read-out: MIC K. pneumoniae ATCC 13883 In 50% human serum
[8] = Klebsiella pneumoniae, ATCC13883, read-out: MIC K. pneumoniae ATCC 13883 Wild-type
[9] = read-out: HepG2 viability IC50, 72 h

| SMILES | MIC [1, 6] | MIC [2, 7] | MIC [2, 8] | IC50 [3, 9] | MIC E. coli ATCC 25922 ΔtolC efflux mutant [4] | hemolysis [5] | MIC ([1]; ATCC 25922 (Table S4), read-out: MIC E. coli EN0001) | MIC ([2]; Klebsiella pneumoniae, ATCC13883; read-out: MIC K. pneumoniae ATCC 13883 In 50% human serum) | MIC ([2]; Klebsiella pneumoniae, ATCC13883; read-out: MIC K. pneumoniae ATCC 13883 Wild-type) | IC50 ([3]; read-out: HepG2 viability IC50) |
| --- | --- | --- | --- | --- | --- | --- | --- | --- | --- | --- |
| Cc1cc(C#N)nc(N2CCN(S(=O)(=O)c3ccc(NC(=O)c4ccccc4N(C)S(C)(=O)=O)cc3)CC2)n1 [EBL-3339] | 1 µg/mL (≈ 1.76 µM) | 2 µg/mL (≈ 3.51 µM) | 0.5 µg/mL (≈ 0.878 µM) | 29 µM | ≤0.125 µg/mL | 0.05% | – | – | – | – |
| CN(c1ccc(CNCCN)cc1C(=O)Nc1ccc(S(=O)(=O)N2CCN(c3cc(Cl)cc(Cl)c3)CC2)cc1)S(C)(=O)=O [EBL-3025] | 1 µg/mL (≈ 1.49 µM) | 0.5 µg/mL (≈ 0.747 µM) | 0.5 µg/mL (≈ 0.747 µM) | 49 µM | ≤0.125 µg/mL | 1.98% | – | – | – | – |
| Cc1cc(C#N)nc(N2CCN(S(=O)(=O)c3ccc(NC(=O)c4cc(CNCCCN)ccc4N(C)S(C)(=O)=O)cc3)CC2)n1.Cl.Cl [EBL-3599] | 2 µg/mL | – | – | – | ≤0.125 µg/mL | 0.06% | 2 µg/mL | 0.25 µg/mL | 1 µg/mL | 55 µM |
